Consider 25 molecules from patent publication US8969325B2, “TRPV1 antagonists” (AbbVie Inc., priority 2011, dated 2015).

For orientation: IC50 means the concentration at which inhibition is half-maximal.

The target in assay [1] is T1, human TRPV1 (Homo sapiens (Human), UniProt Q8NER1). The experiment in a line: Capsaicin Activation Assay (intracellular Ca2+, FLIPR). Type of assay: cell-based. To be noted: recombinant HEK293 cells expressing hTRPV1, 50 nM capsaicin. In short, it runs like this:
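Ca2+ fluorescence was recorded by FLIPR every 1 to 5 seconds in HEK293 cells, clonally selected for stable human TRPV1 expression and plated one day ahead. Test compounds came as serial dilutions of 10 mM DMSO stocks.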

Assay [2] addresses T1, human TRPV1. The experiment in a line: Acid Activation Assay (pH 5.0, intracellular Ca2+, FLIPR). To be noted: percentage of the maximal pH 5.0-induced response remaining; recombinant HEK293 hTRPV1 cells; maximum concentration tested 37.5 μM. Type of assay: cell-based. In outline: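 Readout: peak [Ca2+]i fluorescence over baseline on FLIPR, expressed as percentage remaining of the maximal pH 5.0-evoked signal. Stable hTRPV1-HEK293 cells with Calcium-4 dye received compound (12 half-log concentrations, maximum 37.5 μM) 3 min before acidic pH 5.0 buffer.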

T1 sequence (Q8NER1 whole entry): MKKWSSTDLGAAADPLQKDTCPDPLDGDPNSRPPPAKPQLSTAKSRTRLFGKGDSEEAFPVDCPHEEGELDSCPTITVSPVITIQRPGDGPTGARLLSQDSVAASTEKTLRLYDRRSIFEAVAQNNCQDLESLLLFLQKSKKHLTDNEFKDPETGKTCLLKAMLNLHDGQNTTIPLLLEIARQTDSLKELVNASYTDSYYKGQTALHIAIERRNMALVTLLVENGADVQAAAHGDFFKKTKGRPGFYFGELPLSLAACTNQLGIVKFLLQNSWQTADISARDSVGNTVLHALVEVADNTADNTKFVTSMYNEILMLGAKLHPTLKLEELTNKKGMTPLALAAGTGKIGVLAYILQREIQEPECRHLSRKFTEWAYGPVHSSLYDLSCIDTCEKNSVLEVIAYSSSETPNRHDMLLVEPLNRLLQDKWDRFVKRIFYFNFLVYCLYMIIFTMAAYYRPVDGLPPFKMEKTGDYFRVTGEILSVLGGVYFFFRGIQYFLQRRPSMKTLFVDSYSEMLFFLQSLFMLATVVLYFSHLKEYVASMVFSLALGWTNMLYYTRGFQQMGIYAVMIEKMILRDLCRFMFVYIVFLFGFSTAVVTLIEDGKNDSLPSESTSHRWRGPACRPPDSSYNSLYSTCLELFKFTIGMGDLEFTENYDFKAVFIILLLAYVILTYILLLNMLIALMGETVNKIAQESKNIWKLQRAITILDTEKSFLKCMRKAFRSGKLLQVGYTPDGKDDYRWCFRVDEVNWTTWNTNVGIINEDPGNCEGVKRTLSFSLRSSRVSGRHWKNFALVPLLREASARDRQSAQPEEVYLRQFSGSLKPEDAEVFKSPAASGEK

As to `C[C@@]1(C(F)(F)F)C[C@@H](NC(=O)Nc2ccc3c(c2)NC(=O)CC3)c2ccccc2O1` [Example 245, 1-[(2S,4R)-2-methyl-2-(trifluoromethyl)-3,4-dihydro-2H-chromen-4-yl]-3-(2-oxo-1,2,3,4-tetrahydroquinolin-7-yl)urea], the IC50 at human TRPV1 [1] came to 280 nM. Moreover, the “human TRPV1 H^+ (max % remain)” value on human TRPV1 [2] is 28%.

With `C[C@@]1(CF)C[C@@H](NC(=O)Nc2ccc3c(c2)NC(=O)CC3)c2ccc(Cl)cc2O1` [Example 246, 1-[(2S,4R)-7-chloro-2-(fluoromethyl)-2-methyl-3,4-dihydro-2H-chromen-4-yl]-3-(2-oxo-1,2,3,4-tetrahydroquinolin-7-yl)urea], at human TRPV1 [1], the IC50 was determined as 130 nM. Also, the “human TRPV1 H^+ (max % remain)” value on human TRPV1 [2] came out at 33%.

For `CC1(C)C[C@@H](NC(=O)Nc2ccc3c(c2)NC(=O)CC3)c2ccc(C(F)(F)F)nc2O1` [Example 247, 1-[(4R)-2,2-dimethyl-7-(trifluoromethyl)-3,4-dihydro-2H-pyrano[2,3-b]pyridin-4-yl]-3-(2-oxo-1,2,3,4-tetrahydroquinolin-7-yl)urea], the IC50 at human TRPV1 [1] amounted to 38 nM. Further, on human TRPV1 [2], the “human TRPV1 H^+ (max % remain)” value came to 18%.

As to `C[C@@]1(C(F)F)C[C@@H](NC(=O)Nc2ccc3c(c2)NC(=O)CC3)c2ccccc2O1` [Example 248, 1-[(2S,4R)-2-(difluoromethyl)-2-methyl-3,4-dihydro-2H-chromen-4-yl]-3-(2-oxo-1,2,3,4-tetrahydroquinolin-7-yl)urea], the IC50 on human TRPV1 [1] was 160 nM. Further, the “human TRPV1 H^+ (max % remain)” value at human TRPV1 [2] came out at 24%.

As to `C[C@]1(C(F)F)C[C@@H](NC(=O)Nc2ccc3c(c2)NC(=O)CC3)c2ccccc2O1` [Example 249, 1-[(2R,4R)-2-(difluoromethyl)-2-methyl-3,4-dihydro-2H-chromen-4-yl]-3-(2-oxo-1,2,3,4-tetrahydroquinolin-7-yl)urea], the 50% inhibitory concentration (IC50) on human TRPV1 [1] came to 110 nM. The “human TRPV1 H^+ (max % remain)” value on human TRPV1 [2] amounted to 28%.

Consider `O=C1CCc2ccc(NC(=O)N[C@@H]3CC(CF)(CF)Oc4cc(F)ccc43)cc2N1` [Example 250, 1-[(4R)-7-fluoro-2,2-bis(fluoromethyl)-3,4-dihydro-2H-chromen-4-yl]-3-(2-oxo-1,2,3,4-tetrahydroquinolin-7-yl)urea], for which, on human TRPV1 [1], the IC50 was determined as 53 nM. Also, the “human TRPV1 H^+ (max % remain)” value at human TRPV1 [2] was found to be 23%.

For the molecule `O=C1CCc2ccc(NC(=S)N[C@@H]3CC(CF)(CF)Oc4cc(Cl)ccc43)cc2N1` [Example 252, 1-[(4R)-7-chloro-2,2-bis(fluoromethyl)-3,4-dihydro-2H-chromen-4-yl]-3-(2-oxo-1,2,3,4-tetrahydroquinolin-7-yl)thiourea], at human TRPV1 [1], the IC50 is 13 nM. Besides, the “human TRPV1 H^+ (max % remain)” value on human TRPV1 [2] is given as 48%.

As for `CN1C(=O)CCc2ccc(NC(=O)N[C@@H]3CC(C)(C)Oc4cc(F)ccc43)cc21` [Example 253, 1-[(4R)-7-fluoro-2,2-dimethyl-3,4-dihydro-2H-chromen-4-yl]-3-(1-methyl-2-oxo-1,2,3,4-tetrahydroquinolin-7-yl)urea], at human TRPV1 [1], the half-inhibitory concentration (IC50) is 110 nM. In addition, the “human TRPV1 H^+ (max % remain)” value at human TRPV1 [2] came to 31%.

As to `CN1C(=O)CCc2c(NC(=O)N[C@@H]3CC(CF)(CF)Oc4cc(Cl)ccc43)cccc21` [Example 254, 1-[(4R)-7-chloro-2,2-bis(fluoromethyl)-3,4-dihydro-2H-chromen-4-yl]-3-(1-methyl-2-oxo-1,2,3,4-tetrahydroquinolin-5-yl)urea], at human TRPV1 [1], the half-inhibitory concentration (IC50) amounted to 130 nM. Also, the “human TRPV1 H^+ (max % remain)” value at human TRPV1 [2] worked out at 73%.

For `CN1C(=O)CCc2ccc(NC(=O)N[C@@H]3CC(CF)(CF)Oc4cc(Cl)ccc43)cc21` [Example 255, 1-[(4R)-7-chloro-2,2-bis(fluoromethyl)-3,4-dihydro-2H-chromen-4-yl]-3-(1-methyl-2-oxo-1,2,3,4-tetrahydroquinolin-7-yl)urea], the IC50 on human TRPV1 [1] was determined as 20 nM. The “human TRPV1 H^+ (max % remain)” value at human TRPV1 [2] was 5%.

Regarding `CN1C(=O)CCc2ccc(NC(=O)N[C@@H]3CC(C)(C)Oc4c3cccc4C(F)(F)F)cc21` [Example 256, 1-[(4R)-2,2-dimethyl-8-(trifluoromethyl)-3,4-dihydro-2H-chromen-4-yl]-3-(1-methyl-2-oxo-1,2,3,4-tetrahydroquinolin-7-yl)urea], the IC50 on human TRPV1 [1] was found to be 390 nM. The “human TRPV1 H^+ (max % remain)” value at human TRPV1 [2] amounted to 89%.

As for `CN1C(=O)CCc2ccc(NC(=O)N[C@@H]3CC(C)(C)Oc4c(F)cccc43)cc21` [Example 257, 1-[(4R)-8-fluoro-2,2-dimethyl-3,4-dihydro-2H-chromen-4-yl]-3-(1-methyl-2-oxo-1,2,3,4-tetrahydroquinolin-7-yl)urea], the IC50 at human TRPV1 [1] was 21 nM. The “human TRPV1 H^+ (max % remain)” value at human TRPV1 [2] is recorded as 72%.

With `CN1C(=O)CCc2ccc(NC(=O)N[C@@H]3CCOc4ccccc43)cc21` [Example 258, 1-[(4R)-3,4-dihydro-2H-chromen-4-yl]-3-(1-methyl-2-oxo-1,2,3,4-tetrahydroquinolin-7-yl)urea], the IC50 at human TRPV1 [1] came out at 170 nM. For the same molecule, the “human TRPV1 H^+ (max % remain)” value on human TRPV1 [2] was 72%.

In the case of `CCC1(CC)C[C@@H](NC(=O)Nc2ccc3c(c2)N(C)C(=O)CC3)c2cccc(F)c2O1` [Example 259, 1-[(4R)-2,2-diethyl-8-fluoro-3,4-dihydro-2H-chromen-4-yl]-3-(1-methyl-2-oxo-1,2,3,4-tetrahydroquinolin-7-yl)urea], the concentration for half-maximal inhibition (IC50) at human TRPV1 [1] was 4700 nM. The “human TRPV1 H^+ (max % remain)” value at human TRPV1 [2] worked out at 89%.

Take `CCC1(CC)C[C@@H](NC(=O)Nc2ccc3c(c2)N(C)C(=O)CC3)c2ccccc2O1` [Example 260, 1-[(4R)-2,2-diethyl-3,4-dihydro-2H-chromen-4-yl]-3-(1-methyl-2-oxo-1,2,3,4-tetrahydroquinolin-7-yl)urea]: the 50% inhibitory concentration (IC50) at human TRPV1 [1] was 130 nM. Further, on human TRPV1 [2], the “human TRPV1 H^+ (max % remain)” value amounted to 61%.

Take `CCC1(CC)C[C@@H](NC(=O)Nc2ccc3c(c2)N(C)C(=O)CC3)c2ccc(C(F)(F)F)cc2O1` [Example 261, 1-[(4R)-2,2-diethyl-7-(trifluoromethyl)-3,4-dihydro-2H-chromen-4-yl]-3-(1-methyl-2-oxo-1,2,3,4-tetrahydroquinolin-7-yl)urea]: the IC50 on human TRPV1 [1] was 220 nM. In addition, the “human TRPV1 H^+ (max % remain)” value at human TRPV1 [2] was 70%.

In the case of `CCC1(CC)C[C@@H](NC(=O)Nc2ccc3c(c2)N(C)C(=O)CC3)c2ccc(Cl)cc2O1` [Example 262, 1-[(4R)-7-chloro-2,2-diethyl-3,4-dihydro-2H-chromen-4-yl]-3-(1-methyl-2-oxo-1,2,3,4-tetrahydroquinolin-7-yl)urea], the IC50 at human TRPV1 [1] came to 460 nM. Besides, the “human TRPV1 H^+ (max % remain)” value at human TRPV1 [2] came to 37%.

Regarding `CN1C(=O)CCc2ccc(NC(=O)N[C@@H]3CC(CF)(CF)Oc4cc(C(F)(F)F)ccc43)cc21` [Example 263, 1-[(4R)-2,2-bis(fluoromethyl)-7-(trifluoromethyl)-3,4-dihydro-2H-chromen-4-yl]-3-(1-methyl-2-oxo-1,2,3,4-tetrahydroquinolin-7-yl)urea], the IC50 at human TRPV1 [1] worked out at 500 nM. The “human TRPV1 H^+ (max % remain)” value on human TRPV1 [2] is given as 51%.

Consider `CCC1(CC)C[C@@H](NC(=O)Nc2ccc3c(c2)N(C)C(=O)CC3)c2ccc(Cl)c(Cl)c2O1` [Example 264, 1-[(4R)-7,8-dichloro-2,2-diethyl-3,4-dihydro-2H-chromen-4-yl]-3-(1-methyl-2-oxo-1,2,3,4-tetrahydroquinolin-7-yl)urea], for which, on human TRPV1 [1], the IC50 is 170 nM. In addition, on human TRPV1 [2], the “human TRPV1 H^+ (max % remain)” value amounted to 82%.

`CN1C(=O)CCc2ccc(NC(=O)N[C@@H]3CC(C)(C)Oc4cc(C(F)(F)F)ccc43)cc21` [Example 265, 1-[(4R)-2,2-dimethyl-7-(trifluoromethyl)-3,4-dihydro-2H-chromen-4-yl]-3-(1-methyl-2-oxo-1,2,3,4-tetrahydroquinolin-7-yl)urea]: the half-maximal inhibitory concentration (IC50) on human TRPV1 [1] is 660 nM. The “human TRPV1 H^+ (max % remain)” value at human TRPV1 [2] was found to be 53%.

With `CCCC1(CCC)C[C@@H](NC(=O)Nc2ccc3c(c2)N(C)C(=O)CC3)c2cc(F)ccc2O1` [Example 266, 1-[(4R)-6-fluoro-2,2-dipropyl-3,4-dihydro-2H-chromen-4-yl]-3-(1-methyl-2-oxo-1,2,3,4-tetrahydroquinolin-7-yl)urea], the IC50 at human TRPV1 [1] was 65 nM. Besides, at human TRPV1 [2], the “human TRPV1 H^+ (max % remain)” value is listed as 54%.

For `CN1C(=O)CCc2ccc(NC(=O)N[C@@H]3CC(CF)(CF)Oc4ccc(F)cc43)cc21` [Example 267, 1-[(4R)-6-fluoro-2,2-bis(fluoromethyl)-3,4-dihydro-2H-chromen-4-yl]-3-(1-methyl-2-oxo-1,2,3,4-tetrahydroquinolin-7-yl)urea], on human TRPV1 [1], the IC50 came out at 380 nM. Further, the “human TRPV1 H^+ (max % remain)” value at human TRPV1 [2] stood at 63%.

In the case of `CN1C(=O)CCc2ccc(NC(=O)N[C@@H]3CC(CF)(CF)Oc4c(F)cc(F)cc43)cc21` [Example 268, 1-[(4R)-6,8-difluoro-2,2-bis(fluoromethyl)-3,4-dihydro-2H-chromen-4-yl]-3-(1-methyl-2-oxo-1,2,3,4-tetrahydroquinolin-7-yl)urea], the IC50 on human TRPV1 [1] was determined as 1200 nM. In addition, the “human TRPV1 H^+ (max % remain)” value at human TRPV1 [2] came to 66%.

Consider `CN1C(=O)CCc2ccc(NC(=O)N[C@@H]3CC4(CCC4)Oc4ccc(F)cc43)cc21` [Example 269, 1-[(4R)-6-fluoro-3,4-dihydrospiro[chromene-2,1′-cyclobutan]-4-yl]-3-(1-methyl-2-oxo-1,2,3,4-tetrahydroquinolin-7-yl)urea], for which the IC50 at human TRPV1 [1] came to 540 nM. The “human TRPV1 H^+ (max % remain)” value on human TRPV1 [2] came out at 70%.

As for `CCC1(CC)C[C@@H](NC(=O)Nc2ccc3c(c2)N(C)C(=O)CC3)c2cc(F)ccc2O1` [Example 270, 1-[(4R)-2,2-diethyl-6-fluoro-3,4-dihydro-2H-chromen-4-yl]-3-(1-methyl-2-oxo-1,2,3,4-tetrahydroquinolin-7-yl)urea], the IC50 on human TRPV1 [1] was found to be 220 nM. Further, the “human TRPV1 H^+ (max % remain)” value on human TRPV1 [2] turned out to be 86%.
